In ChEMBL document CHEMBL1275558 (Antimicrob Agents Chemother, 2008) one finds CC50, IC50 and selectivity ratio data, which are given here for 34 compounds.

Data set [1] is described as follows: Cytotoxicity against human foreskin fibroblast cell infected with Toxoplasma gondii. The data set is classed as cell-based. The following applies: read-out: TD50 (the source's name).
The next data set deals with Toxoplasma gondii. Nature of the data set: Antimicrobial activity against Toxoplasma gondii. In kind it is functional. As to conditions: read-out: ID50 (the source's name).
Data set [2] is described as follows: Therapeutic index, ration of TD50 for human foreskin fibroblast cell infected with Toxoplasma gondii to ID 50 for Toxoplasma gondii. The data set is classed as cell-based. The following applies: read-out: TI.

In the case of `O=C1Nc2ccc(F)cc2/C1=C1/Nc2ccccc2/C1=N\O`, in data set [1], the CC50 came to 61 µM. For the same compound, in the data set with Toxoplasma gondii, the IC50 amounted to 0.52 µM. Further, in data set [2], the selectivity ratio stood at 120.
For the compound `Cc1ccc2c(c1)/C(=C1/Nc3ccccc3/C1=N\O)C(=O)N2`, the CC50 in data set [1] is greater than 500 µM. In addition, the IC50 in the data set on Toxoplasma gondii is greater than 500 µM.
With `O=C1c2cc(F)ccc2-n2c1nc1ccccc1c2=O`, the CC50 in data set [1] was 63 µM. The IC50 in the data set with Toxoplasma gondii is 0.002 µM. Further, the selectivity ratio in data set [2] worked out at 31500.
As to `Cc1ccc2[nH]c(O)c(C3=Nc4ccccc4C3=O)c2c1`, the CC50 in data set [1] was greater than 500 µM. Further, the IC50 in the data set with Toxoplasma gondii was greater than 500 µM.
Turning to `O=C1C(c2c(O)[nH]c3ccc(S(=O)(=O)O)cc23)=Nc2ccccc21`, the CC50 in data set [1] was greater than 500 µM. The IC50 in the data set with Toxoplasma gondii was greater than 500 µM.
With `O=C1Nc2cc(Cl)c(Br)cc2/C1=C1/Nc2ccccc2/C1=N\O`, the CC50 in data set [1] was greater than 500 µM. In addition, the IC50 with Toxoplasma gondii amounted to 2.4 µM. In data set [2], the selectivity ratio is greater than 210.
Regarding `O=C1c2cc(I)ccc2-n2c1nc1ccccc1c2=O`, the CC50 in data set [1] was greater than 500 µM. The IC50 in the data set with Toxoplasma gondii is 0.02 µM.
Take `O=C1c2ccc(Cl)cc2-n2c1nc1ccccc1c2=O`: the CC50 in data set [1] was greater than 500 µM. Moreover, the IC50 in the data set with Toxoplasma gondii came out at 6.3 µM. Besides, the selectivity ratio in data set [2] was greater than 80.
Regarding `O=C1c2ccc(Br)cc2-n2c1nc1ccccc1c2=O`, the CC50 in data set [1] was greater than 500 µM. The IC50 in the data set with Toxoplasma gondii came to 3 µM. Also, in data set [2], the selectivity ratio is greater than 160.
For `O=C1Nc2ccccc2/C1=C1/Nc2ccccc2/C1=N\OCC(O)CO` (stereo not given), the CC50 in data set [1] is greater than 500 µM. Moreover, the IC50 with Toxoplasma gondii stood at 230 µM. Also, the selectivity ratio in data set [2] was greater than 2.
In the same order, the values of `O=C1c2cc(Br)c(Cl)cc2-n2c1nc1ccccc1c2=O` are 100 µM, 1.7 µM and 59.
Regarding `O=C1Nc2cc(Cl)c(Br)cc2/C1=C1/Nc2ccccc2C1=O`, the CC50 in data set [1] is greater than 500 µM. Moreover, in the data set on Toxoplasma gondii, the IC50 is greater than 500 µM.
Turning to `CC(=O)N1C(=O)/C(=C2\Nc3ccccc3C2=O)c2ccccc21`, in data set [1], the CC50 is greater than 500 µM. Further, the IC50 with Toxoplasma gondii turned out to be 30 µM. Moreover, in data set [2], the selectivity ratio is greater than 16.
With `O=Nc1c(-c2c(O)[nH]c3cc(Cl)ccc23)[nH]c2ccccc12`, in data set [1], the CC50 is 20 µM. The IC50 in the data set with Toxoplasma gondii is 0.18 µM. Besides, in data set [2], the selectivity ratio worked out at 110.
As to `O=C1C(c2c(O)[nH]c3ccc(I)cc23)=Nc2ccccc21`, the CC50 in data set [1] stood at 240 µM. The IC50 in the data set on Toxoplasma gondii was determined as 22 µM. Besides, the selectivity ratio in data set [2] is 11.
In the case of `O=C1C(c2c(O)[nH]c3ccc(Br)cc23)=Nc2ccccc21`, the CC50 in data set [1] is greater than 500 µM. Besides, the IC50 in the data set with Toxoplasma gondii was 27 µM. Also, the selectivity ratio in data set [2] is greater than 19.
Regarding `O=C1C(c2c(O)[nH]c3ccc([N+](=O)[O-])cc23)=Nc2ccccc21`, the CC50 in data set [1] was greater than 500 µM. In addition, the IC50 in the data set with Toxoplasma gondii was greater than 500 µM.
In the case of `CC(=O)O/N=C1/C(c2c(O)[nH]c3ccccc23)=Nc2ccccc21`, the CC50 in data set [1] is 22 µM. Also, in the data set with Toxoplasma gondii, the IC50 was 0.21 µM. For the same compound, the selectivity ratio in data set [2] came out at 100.
The like results for `O=C1c2cc(Cl)ccc2-n2c1nc1ccccc1c2=O` were, in that order, 360 µM, 0.011 µM and 33000.
With `Cc1ccc2c(c1)C(=O)c1nc3ccccc3c(=O)n1-2`, the CC50 in data set [1] is greater than 500 µM. Moreover, in the data set on Toxoplasma gondii, the IC50 came out at 0.082 µM. Besides, the selectivity ratio in data set [2] is greater than 6100.
The like results for `O=Nc1c(-c2c(O)[nH]c3ccc(I)cc23)[nH]c2ccccc12` were, in that order, 47 µM, 9.7 µM and 5.
For `O=C1C(c2c(O)[nH]c3ccc(Cl)cc23)=Nc2ccccc21`, in data set [1], the CC50 is greater than 500 µM. The IC50 in the data set on Toxoplasma gondii came out at 60 µM. For the same compound, in data set [2], the selectivity ratio is greater than 8.
For the compound `O=C1C(c2c(O)[nH]c3ccc(F)cc23)=Nc2ccccc21`, the CC50 in data set [1] is greater than 500 µM. Moreover, in the data set with Toxoplasma gondii, the IC50 is greater than 500 µM.
Consider `O=C1C(c2c(O)[nH]c3cc(Cl)ccc23)=Nc2ccccc21`, for which, in data set [1], the CC50 was greater than 500 µM. Moreover, the IC50 in the data set with Toxoplasma gondii is greater than 500 µM.
Regarding `O=Nc1c(-c2c(O)[nH]c3ccc([N+](=O)[O-])cc23)[nH]c2ccccc12`, the CC50 in data set [1] was determined as 27 µM. Further, the IC50 with Toxoplasma gondii is 1.1 µM. Besides, the selectivity ratio in data set [2] came out at 25.
With `O=C1Nc2ccc(S(=O)(=O)O)cc2/C1=C1/Nc2ccccc2/C1=N\O`, the CC50 in data set [1] is greater than 500 µM. Moreover, in the data set with Toxoplasma gondii, the IC50 is greater than 500 µM.
For the compound `O=C1Nc2ccc(Cl)cc2/C1=C1/Nc2ccccc2/C1=N\O`, the CC50 in data set [1] came to 51 µM. Also, in the data set with Toxoplasma gondii, the IC50 is 2.2 µM. Further, the selectivity ratio in data set [2] amounted to 23.
In the same order, the values of `O=C1c2cc(Br)ccc2-n2c1nc1ccccc1c2=O` are greater than 500 µM, 0.003 µM and greater than 160000.
The like results for `CC(=O)O/N=C1/C(=C2/C(=O)Nc3cc(Br)ccc32)Nc2ccccc21` [6-BROMOINDIRUBIN-3'-ACETOXIME] were, in that order, 46 µM, 3.7 µM and 12.
Regarding `O=C1Nc2cc(Br)ccc2/C1=C1/Nc2ccccc2/C1=N\O` [6BIO], the CC50 in data set [1] was determined as 16 µM.
Take `O=C1Nc2ccc(Br)cc2/C1=C1/Nc2ccccc2/C1=N\O` [INDIRUBIN 2]: the CC50 in data set [1] was found to be 17 µM. The IC50 with Toxoplasma gondii was 1.8 µM. Moreover, the selectivity ratio in data set [2] worked out at 9.
For the compound `O=Nc1c(-c2c(O)[nH]c3ccccc23)[nH]c2ccccc12` [INDIRUBIN-3-MONOXIME], the CC50 in data set [1] is greater than 500 µM. The IC50 in the data set with Toxoplasma gondii came to 3.6 µM. Besides, the selectivity ratio in data set [2] is greater than 139.
Turning to `O=C1Nc2ccccc2/C1=C1/Nc2ccccc2C1=O` [INDIRUBIN], in data set [1], the CC50 is greater than 500 µM. For the same compound, in the data set with Toxoplasma gondii, the IC50 was greater than 500 µM.
As to `O=C1c2ccccc2-n2c1nc1ccccc1c2=O` [TRYPTANTHRIN], the CC50 in data set [1] stood at 62 µM. In addition, the IC50 with Toxoplasma gondii is 0.031 µM. The selectivity ratio in data set [2] was 2000.
